Test: xn = mol fraction of the nth substance listed
Settings: Liquid

CCCCO [butan-1-ol] + O=C=O
Settings	mass density [kg/m3]
362.67 K, 7985 kPa, x2 = 0.0251	762.59
362.67 K, 9006 kPa, x2 = 0.0251	763.64
362.67 K, 10031 kPa, x2 = 0.0251	764.7
362.67 K, 11027 kPa, x2 = 0.0251	765.69
362.67 K, 12000 kPa, x2 = 0.0251	766.65
362.67 K, 13054 kPa, x2 = 0.0251	767.68
362.67 K, 14008 kPa, x2 = 0.0251	768.61
362.67 K, 14993 kPa, x2 = 0.0251	769.57
362.67 K, 16000 kPa, x2 = 0.0251	770.52
362.67 K, 17046 kPa, x2 = 0.0251	771.48
362.67 K, 17989 kPa, x2 = 0.0251	772.34
362.67 K, 19009 kPa, x2 = 0.0251	773.27
362.67 K, 20045 kPa, x2 = 0.0251	774.19
362.67 K, 21017 kPa, x2 = 0.0251	775.08
362.67 K, 22075 kPa, x2 = 0.0251	775.99
362.67 K, 23006 kPa, x2 = 0.0251	776.82
362.67 K, 24007 kPa, x2 = 0.0251	777.69
362.67 K, 25062 kPa, x2 = 0.0251	778.61
362.69 K, 2045 kPa, x2 = 0.0857	757.33
362.69 K, 3006 kPa, x2 = 0.0857	758.53
362.69 K, 3982 kPa, x2 = 0.0857	759.72
362.69 K, 5010 kPa, x2 = 0.0857	760.91
362.69 K, 5976 kPa, x2 = 0.0857	762.09
362.69 K, 6994 kPa, x2 = 0.0857	763.25
362.69 K, 7999 kPa, x2 = 0.0857	764.42
362.69 K, 8998 kPa, x2 = 0.0857	765.51
362.69 K, 10048 kPa, x2 = 0.0857	766.67
362.69 K, 11028 kPa, x2 = 0.0857	767.74
362.69 K, 11999 kPa, x2 = 0.0857	768.75
362.69 K, 12994 kPa, x2 = 0.0857	769.85
362.69 K, 14018 kPa, x2 = 0.0857	770.91
362.69 K, 15014 kPa, x2 = 0.0857	771.91
362.69 K, 15995 kPa, x2 = 0.0857	772.93
362.69 K, 17061 kPa, x2 = 0.0857	773.98
362.69 K, 18008 kPa, x2 = 0.0857	774.96
362.69 K, 19008 kPa, x2 = 0.0857	775.88
362.69 K, 20060 kPa, x2 = 0.0857	776.81
362.69 K, 21044 kPa, x2 = 0.0857	777.83
362.69 K, 22045 kPa, x2 = 0.0857	778.82
362.69 K, 23036 kPa, x2 = 0.0857	779.68
362.69 K, 24037 kPa, x2 = 0.0857	780.65
362.69 K, 25015 kPa, x2 = 0.0857	781.57
362.74 K, 14112 kPa, x2 = 0.4972	771.83
362.74 K, 15096 kPa, x2 = 0.4972	773.91
362.74 K, 15985 kPa, x2 = 0.4972	775.76
362.74 K, 17043 kPa, x2 = 0.4972	777.9
362.74 K, 18079 kPa, x2 = 0.4972	779.94
362.74 K, 19117 kPa, x2 = 0.4972	781.94
362.74 K, 20051 kPa, x2 = 0.4972	783.68
362.74 K, 21025 kPa, x2 = 0.4972	785.45
362.74 K, 22018 kPa, x2 = 0.4972	787.27
362.74 K, 23076 kPa, x2 = 0.4972	789.13
362.74 K, 24063 kPa, x2 = 0.4972	790.85
362.74 K, 25140 kPa, x2 = 0.4972	792.64
362.75 K, 21992 kPa, x2 = 0.8663	710.63
362.75 K, 23010 kPa, x2 = 0.8663	720.36
362.75 K, 24074 kPa, x2 = 0.8663	729.68
362.75 K, 25130 kPa, x2 = 0.8663	738.23
362.76 K, 15085 kPa, x2 = 0.5965	765.37
362.76 K, 16042 kPa, x2 = 0.5965	768.34
362.76 K, 17060 kPa, x2 = 0.5965	771.36
362.76 K, 18019 kPa, x2 = 0.5965	774.09
362.76 K, 19023 kPa, x2 = 0.5965	776.91
362.76 K, 20064 kPa, x2 = 0.5965	779.68
362.76 K, 21026 kPa, x2 = 0.5965	782.15
362.76 K, 22023 kPa, x2 = 0.5965	784.67
362.76 K, 23058 kPa, x2 = 0.5965	787.18
362.76 K, 24078 kPa, x2 = 0.5965	789.61
362.76 K, 25110 kPa, x2 = 0.5965	791.98
362.78 K, 6018 kPa, x2 = 0.1842	761.83
362.78 K, 6995 kPa, x2 = 0.1842	763.16
362.78 K, 8099 kPa, x2 = 0.1842	764.64
362.78 K, 9002 kPa, x2 = 0.1842	765.81
362.78 K, 10022 kPa, x2 = 0.1842	767.06
362.78 K, 10995 kPa, x2 = 0.1842	768.34
362.78 K, 12059 kPa, x2 = 0.1842	769.68
362.78 K, 13056 kPa, x2 = 0.1842	770.87
362.78 K, 14029 kPa, x2 = 0.1842	772.05
362.78 K, 15026 kPa, x2 = 0.1842	773.24
362.78 K, 16010 kPa, x2 = 0.1842	774.38
362.78 K, 17020 kPa, x2 = 0.1842	775.53
362.78 K, 18041 kPa, x2 = 0.1842	776.68
362.78 K, 19031 kPa, x2 = 0.1842	777.79
362.78 K, 20045 kPa, x2 = 0.1842	778.9

Source: the NIST ThermoML archive (doi:10.1021/je700261b)
